How the values were obtained:
[1] = target: T1, rat adrenergic α1B receptor (Rattus norvegicus, UniProt P15823); test: Adrenergic α1B radioligand binding ([3H]Prazosin); settings: 0.1 μM compound; 0.1 µM
T1 construct: rat adrenergic α1B receptor obtained from Wistar Rat liver; from tissue; host or cells: Wistar rat liver
T1 sequence (P15823 1-515): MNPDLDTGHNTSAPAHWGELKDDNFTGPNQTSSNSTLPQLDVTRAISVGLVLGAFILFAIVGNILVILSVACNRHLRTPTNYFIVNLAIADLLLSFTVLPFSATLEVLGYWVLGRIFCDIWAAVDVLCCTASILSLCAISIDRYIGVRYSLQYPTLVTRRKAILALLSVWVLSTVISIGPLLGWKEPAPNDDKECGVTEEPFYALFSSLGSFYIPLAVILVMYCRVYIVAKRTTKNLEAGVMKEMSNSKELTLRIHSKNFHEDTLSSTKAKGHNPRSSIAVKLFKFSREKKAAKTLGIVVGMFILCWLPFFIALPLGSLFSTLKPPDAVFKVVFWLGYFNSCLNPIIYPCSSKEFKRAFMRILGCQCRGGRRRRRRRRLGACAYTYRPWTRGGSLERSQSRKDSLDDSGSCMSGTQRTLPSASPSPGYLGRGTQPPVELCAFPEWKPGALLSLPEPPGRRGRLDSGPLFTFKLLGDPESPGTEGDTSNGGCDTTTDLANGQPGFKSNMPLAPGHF
Description: To evaluate in radioligand binding assays the activity of compounds of the invention, rat adrenergic α1B receptor obtained from Wistar Rat liver (Garcia-S'ainz, J. et al, Biochem. Biophys. Res. Commun. 186:760, 1992; Michel, A. et al, Br. J. Pharmacol. 98:883, 1989) in a modified Tris-HCl buffer (50 mM Tris-HCl buffer, pH 7.4, 0.5 mM EDTA) was used. Compounds of the invention were incubated with 0.25 nM [^3H]Prazosin for 60 min at 25° C. Non-specific binding was estimated in the presence of 10 μM phentolamine. Receptor proteins were filtered and washed, the filters were then counted to determine [^3H]Prazosin specifically bound. Compounds were screened at 1 μM or lower, using 1% DMSO as vehicle. Biochemical assay results are presented as the percent inhibition of specific binding in Table 3.

[2] = target: T2, human recombinant adrenergic α2A receptor (Homo sapiens, UniProt P08913); test: Adrenergic α2A radioligand binding ([3H]MK-912); settings: 0.1 μM compound; 0.1 µM
T2 construct: expressed in transfected cells; host or cells: insect Sf9 cells
T2 sequence (P08913 1-465): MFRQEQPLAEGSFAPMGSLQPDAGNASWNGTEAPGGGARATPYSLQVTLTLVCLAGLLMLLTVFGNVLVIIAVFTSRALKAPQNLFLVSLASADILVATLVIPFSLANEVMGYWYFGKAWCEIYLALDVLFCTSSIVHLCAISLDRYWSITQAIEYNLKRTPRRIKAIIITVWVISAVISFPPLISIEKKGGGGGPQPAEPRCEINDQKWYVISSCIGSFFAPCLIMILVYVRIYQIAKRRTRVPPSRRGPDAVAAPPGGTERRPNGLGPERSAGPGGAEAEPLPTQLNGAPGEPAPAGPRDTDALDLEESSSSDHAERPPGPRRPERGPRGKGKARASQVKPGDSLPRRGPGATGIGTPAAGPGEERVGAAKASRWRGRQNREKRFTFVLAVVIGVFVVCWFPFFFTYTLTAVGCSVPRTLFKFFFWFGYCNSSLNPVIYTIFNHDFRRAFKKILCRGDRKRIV
Description: To evaluate in radioligand binding assays the activity of compounds of the invention, human recombinant adrenergic α2A receptor expressed in insect Sf9 cells (Uhlen, S. et al, J. Pharmacol. Exp. Ther. 271:1558, 1994) in a modified Tris-HCl buffer (50 mM Tris-HCl, pH 7.4, 12.5 mM MgCl2, 2 mM EDTA) was used. Compounds of invention were incubated with 1 nM [^3H]MK-912 for 60 min at 25° C. MK-912 is (2S-trans)-1,3,4,5′,6,6′,7,12b-octahydro-1′,3′-dimethyl-spiro[2H-benzofuro[2,3-a]quinolizine-2,4′(1′H)-pyrimidin]-2′(3′H)-one hydrochloride Non-specific binding was estimated in the presence of 10 μM WB-4101 (2-(2,6-Dimethoxyphenoxyethyl)aminomethyl-1,4-benzodioxane hydrochloride). Receptor proteins were filtered and washed, the filters were then counted to determine [^3H]MK-912 specifically bound. Compounds were screened at 1 μM or lower, using 1% DMSO as vehicle. Biochemical assay results are presented as the percent inhibition of specific binding in Table 3.

[3] = target: T3, human recombinant adrenergic α2B receptor (Homo sapiens, UniProt P18089); test: Adrenergic α2B radioligand binding ([3H]Rauwolscine); settings: 0.03 μM compound; 0.03 µM
T3 construct: expressed in transfected cells; host or cells: CHO-K1
T3 sequence (P18089 1-450): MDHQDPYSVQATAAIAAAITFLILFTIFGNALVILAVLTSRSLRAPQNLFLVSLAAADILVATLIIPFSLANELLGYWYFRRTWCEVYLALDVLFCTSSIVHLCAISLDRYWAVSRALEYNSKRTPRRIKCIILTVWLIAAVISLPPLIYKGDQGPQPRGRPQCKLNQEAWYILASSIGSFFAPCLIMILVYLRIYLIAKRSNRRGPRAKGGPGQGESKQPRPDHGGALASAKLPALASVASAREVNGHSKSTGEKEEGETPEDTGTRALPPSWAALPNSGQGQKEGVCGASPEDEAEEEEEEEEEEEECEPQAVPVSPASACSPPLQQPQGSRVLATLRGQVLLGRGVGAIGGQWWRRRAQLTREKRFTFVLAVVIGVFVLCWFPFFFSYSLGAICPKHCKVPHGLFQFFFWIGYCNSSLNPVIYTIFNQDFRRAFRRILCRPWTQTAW
Description: To evaluate in radioligand binding assays the activity of compounds of the invention, human recombinant adrenergic α2B receptor expressed in Chinese hamster ovary (CHO) K1 cells (Uhlen, S. et al, Eur. J. Pharmacol. 343(1):93, 1998) in a modified Tris-HCl buffer (50 mM Tris-HCl, pH 7.4, 12.5 mM MgCl2, 1 mM EDTA, 0.2% BSA) was used. Compounds of the invention were incubated with 2.5 nM [^3H]Rauwolscine for 60 min at 25° C. Non-specific binding was estimated in the presence of 10 μM Prazosin. Receptor proteins were filtered and washed, the filters were then counted to determine [^3H]Rauwolscine specifically bound. Compounds were screened at 1 μM or lower, using 1% DMSO as vehicle. Biochemical assay results are presented as the percent inhibition of specific binding in Table 3.

[4] = target: T4, human recombinant histamine H1 receptor (Homo sapiens, UniProt P35367); test: Histamine H1 radioligand binding ([3H]Pyrilamine); settings: 0.1 μM compound; 0.1 µM
T4 construct: expressed in transfected cells; host or cells: CHO-K1
Description: To evaluate in radioligand binding assays the activity of compounds of the invention, human recombinant histamine H1 receptor expressed in Chinese hamster ovary (CHO) K1 cells (De Backer, M. et al, Biochem. Biophys. Res. Comm. 197(3):1601, 1993) in a modified Tris-HCl buffer (50 mM Tris-HCl, pH 7.4, 2 mM MgCl2, 100 mM NaCl, 250 mM Sucrose) was used. Compounds of the invention were incubated with 1.2 nM [^3H]Pyrilamine for 180 min at 25° C. Non-specific binding was estimated in the presence of 1 μM Pyrilamine. Receptor proteins were filtered and washed, the filters were then counted to determine [^3H]Pyrilamine specifically bound. Compounds were screened at 1 μM or lower, using 1% DMSO as vehicle. Biochemical assay results are presented as the percent inhibition of specific binding in Table 3.

T4 sequence (P35367 whole entry): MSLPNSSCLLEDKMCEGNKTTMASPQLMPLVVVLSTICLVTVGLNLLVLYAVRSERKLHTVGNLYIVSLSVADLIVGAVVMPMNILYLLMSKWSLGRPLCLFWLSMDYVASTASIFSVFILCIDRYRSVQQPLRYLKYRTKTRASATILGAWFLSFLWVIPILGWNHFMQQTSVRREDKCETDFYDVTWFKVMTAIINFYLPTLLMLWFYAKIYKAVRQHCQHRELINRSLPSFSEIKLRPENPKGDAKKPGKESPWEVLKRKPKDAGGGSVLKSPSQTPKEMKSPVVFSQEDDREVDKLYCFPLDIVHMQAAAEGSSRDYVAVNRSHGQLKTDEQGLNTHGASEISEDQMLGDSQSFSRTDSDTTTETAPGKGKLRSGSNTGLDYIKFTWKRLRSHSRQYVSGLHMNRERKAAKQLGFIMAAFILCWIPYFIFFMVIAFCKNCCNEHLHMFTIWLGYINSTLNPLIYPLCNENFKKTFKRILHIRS

Percentage inhibition of ligand binding, Adrenergic α1B [1]	Percentage inhibition of ligand binding, Adrenergic α2A [2]	Percentage inhibition of ligand binding, Adrenergic α2B [3]	Binding data (Percentage inhibition) Histamine H1 (0.1 μM) [4]	Compound
51%	22%	0%	–	Cc1ccc2c(c1)c1c(n2CC2(O)CCc3ccccc32)CCN(C)C1 (single isomer, unassigned) [ii-111b]
82%	8%	68%	6%	Cc1ccc2c(c1)c1c(n2CC2(O)CCCc3ccncc32)CCN(C)C1 (single isomer, unassigned) [ii-113b]
94%	45%	76%	–	Cc1ccc2c(c1)c1c(n2CC2(O)CCc3ccccc32)CCN(C)C1 (single isomer, unassigned) [ii-111a]

— patent US9035056B2, “Pyrido[4,3-b]indole and pyrido[3,4-b]indole derivatives and methods of use” (Medivation Technologies, Inc., priority 2011, dated 2015)
